From US20210387966A1, “2-AMINO-N-HETEROARYL-NICOTINAMIDES AS NAV1.8 INHIBITORS” (Merck Sharp & Dohme Corp., priority 2018, published 2021)

Target: T1, human Nav1.8 channels (Homo sapiens, UniProt Q9Y5Y9)
T1 construct: expressed in transfected cells
Test: Nav1.8 Qube automated patch-clamp assay
Type: cell-based
Details: human Nav1.8 stably expressed in HEK 293 cells; whole-cell voltage clamp, room temperature; resting or inactivated state not specified; read-out: IC50 values (nM) for Examples in the Nav1.8 Qube Assay
Experimental: Compounds were tested on human Nav1.8 and Nav1.5 channels stably expressed in human embryo kidney (HEK) 293 cells. Sodium current measurements on Qube® were conducted as follows: automated 384-well patch-clamp assays on the Qube® platform (Sophion Biosciences) were used to measure the inhibition of sodium flow through human Nav1.8 and Nav1.5 channels. Whole-cell voltage-clamp recordings were performed in QChips® (Sophion Biosciences) at room temperature. Nav1.8 current measurements on Qube® were obtained as follows: Nav1.8 currents were elicited with a 10 second 1 Hertz (Hz) pulse train from a holding potential of −90 millivolts (mV), delivered to the cells once per minute in the control condition (DMSO only) and after compound addition. The 1 hertz pulse train stimulation consisted of ten test pulses to 10 millivolt (mV) for 20 milliseconds (ms), each of which was followed by a 980 millisecond repolarization to −67 millivolts. At the end of the 10 second pulse train stimulation, a second hyperpolarization step to −100 millivolt (mV) was used to recover Nav1.8 from fast inactivation. The peak currents elicited by the 1st and 10th test pulses were used to determine IC50 values for resting inhibition and inactivated state inhibition. Nav1.5 current measurements on Qube® were obtained as follows: Nav1.5 currents were elicited with a 20 second 3 Hertz pulse train in the control condition (DMSO only) and after compound addition. The pulse train consisted of sixty 20 millisecond test pulses to 0 millivolt from a holding potential of −80 millivolt (mV). The average peak currents elicited by the last 3 test pulses were used to determine IC50 values for Nav1.5 inhibition.
The following buffers were used for the Qube® recordings: External buffer for Nav1.8 Qube® recording: 150 NaCl, 2 CaCl2, 5 KCl, 1 Mg Cl2, 10 HEPES, 12 Dextrose; External buffer for Qube® Nav1.5 recording: 120 N-Methyl-D-Glucamine, 40 NaCl, 1 KCl, 2.7 CaCl2, 5 HEPES, 0.5 MgCl2: and Internal buffer for Qube® recording: 120 CsF, 30 CsCl, 10 EGTA, 5 HEPES, 5 NaF, 2 MgCl2.
For all Qube® experiments offline analysis was used to determine percent inhibition as a function of drug concentration. IC50 values were determined by fitting to the Hill equation.

T1 sequence (Q9Y5Y9 whole entry): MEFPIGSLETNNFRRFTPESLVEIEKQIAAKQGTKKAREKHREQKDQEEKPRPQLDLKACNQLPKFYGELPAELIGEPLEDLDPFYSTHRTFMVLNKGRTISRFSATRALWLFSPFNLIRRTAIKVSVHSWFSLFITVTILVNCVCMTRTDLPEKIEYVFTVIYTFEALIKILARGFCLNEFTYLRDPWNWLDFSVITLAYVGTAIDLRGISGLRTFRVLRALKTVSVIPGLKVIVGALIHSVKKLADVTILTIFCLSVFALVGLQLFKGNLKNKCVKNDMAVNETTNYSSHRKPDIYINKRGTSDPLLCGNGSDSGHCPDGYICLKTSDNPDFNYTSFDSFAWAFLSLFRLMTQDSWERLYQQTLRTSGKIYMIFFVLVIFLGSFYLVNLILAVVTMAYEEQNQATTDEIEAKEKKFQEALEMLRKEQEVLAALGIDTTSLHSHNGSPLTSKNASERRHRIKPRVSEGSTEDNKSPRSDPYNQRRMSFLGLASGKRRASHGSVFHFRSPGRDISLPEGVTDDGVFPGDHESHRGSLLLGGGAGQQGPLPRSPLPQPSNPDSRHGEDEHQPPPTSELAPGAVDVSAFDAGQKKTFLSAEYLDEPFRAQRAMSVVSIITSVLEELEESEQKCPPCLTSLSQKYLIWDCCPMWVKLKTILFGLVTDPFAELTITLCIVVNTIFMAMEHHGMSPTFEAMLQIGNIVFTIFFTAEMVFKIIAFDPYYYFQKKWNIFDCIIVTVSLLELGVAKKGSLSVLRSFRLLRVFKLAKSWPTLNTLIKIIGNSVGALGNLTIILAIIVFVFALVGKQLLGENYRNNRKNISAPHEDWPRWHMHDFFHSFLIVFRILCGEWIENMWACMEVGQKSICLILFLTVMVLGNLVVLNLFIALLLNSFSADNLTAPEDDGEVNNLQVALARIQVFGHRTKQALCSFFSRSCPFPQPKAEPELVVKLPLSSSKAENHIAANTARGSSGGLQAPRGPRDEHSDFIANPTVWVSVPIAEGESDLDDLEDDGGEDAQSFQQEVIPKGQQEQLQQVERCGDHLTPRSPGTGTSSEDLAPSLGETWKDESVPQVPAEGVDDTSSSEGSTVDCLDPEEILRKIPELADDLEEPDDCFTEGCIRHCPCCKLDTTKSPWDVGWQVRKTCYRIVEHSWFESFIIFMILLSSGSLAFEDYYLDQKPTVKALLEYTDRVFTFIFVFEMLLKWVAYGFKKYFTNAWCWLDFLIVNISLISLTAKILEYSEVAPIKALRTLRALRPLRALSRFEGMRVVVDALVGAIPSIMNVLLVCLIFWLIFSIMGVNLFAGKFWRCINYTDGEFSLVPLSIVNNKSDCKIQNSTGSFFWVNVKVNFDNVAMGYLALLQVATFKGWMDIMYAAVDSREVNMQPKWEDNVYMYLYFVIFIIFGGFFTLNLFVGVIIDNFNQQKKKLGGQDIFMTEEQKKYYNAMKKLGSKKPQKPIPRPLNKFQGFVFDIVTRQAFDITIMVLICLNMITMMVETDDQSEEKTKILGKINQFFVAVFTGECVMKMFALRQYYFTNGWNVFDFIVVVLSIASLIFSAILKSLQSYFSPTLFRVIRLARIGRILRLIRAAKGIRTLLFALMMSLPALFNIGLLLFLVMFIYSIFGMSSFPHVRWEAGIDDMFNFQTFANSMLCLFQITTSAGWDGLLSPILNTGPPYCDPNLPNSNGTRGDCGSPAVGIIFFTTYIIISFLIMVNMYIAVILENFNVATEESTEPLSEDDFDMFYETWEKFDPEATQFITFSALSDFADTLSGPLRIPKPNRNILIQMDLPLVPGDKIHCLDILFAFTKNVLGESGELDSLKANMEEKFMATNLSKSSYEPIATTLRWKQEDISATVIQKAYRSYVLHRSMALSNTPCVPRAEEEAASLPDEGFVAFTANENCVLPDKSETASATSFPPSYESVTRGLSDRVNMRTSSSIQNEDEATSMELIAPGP

| Compound | IC50 [nM] |
| --- | --- |
| NS(=O)(=O)c1cc(NC(=O)c2cc(C(F)(F)F)cnc2N2CCOC(C(F)(F)F)CC2)ccn1 (single isomer, unassigned) [Example 119, (S or R)-N-(2-sulfamoylpyridin-4-yl)-5-(trifluoromethyl)-2-(7-(trifluoromethyl)-1,4-oxazepan-4-yl)nicotinamide] | 30 |
| CC1CN(c2ncc(C(F)(F)F)cc2C(=O)Nc2ccnc(S(N)(=O)=O)c2)CCC(C(F)(F)F)O1 (single isomer, unassigned) [Example 120, 2-[(2S,7R or 2R,7S)-2-methyl-7-(trifluoromethyl)-1,4-oxazepan-4-yl]-N-(2-sulfamoylpyridin-4-yl)-5-(trifluoromethyl)pyridine-3-carboxamide] | 2.9 |
| CC1CN(c2ncc(C(F)(F)F)cc2C(=O)Nc2ccnc(S(N)(=O)=O)c2)CCC(C(F)(F)F)O1 (single isomer, unassigned) [Example 122, 2-((2R,7R or 2S,7S)-2-methyl-7-(trifluoromethyl)-1,4-oxazepan-4-yl)-N-(2-sulfamoylpyridin-4-yl)-5-(trifluoromethyl)nicotinamide] | 20 |
| CC1CN(c2ncc(C(F)(F)F)cc2C(=O)Nc2ccnc(S(N)(=O)=O)c2)CCC(C(F)(F)F)O1 (single isomer, unassigned) [Example 123, 2-((2S,7S or 2R,7R)-2-methyl-7-(trifluoromethyl)-1,4-oxazepan-4-yl)-N-(2-sulfamoylpyridin-4-yl)-5-(trifluoromethyl)nicotinamide] | 28 |
| Cc1nc(N2CCOC(C(F)F)C2)c(C(=O)Nc2ccnc(S(N)(=O)=O)c2)cc1Cl (single isomer, unassigned) [Example 124, (S or R)-5-chloro-2-(2-(difluoromethyl)morpholino)-6-methyl-N-(2-sulfamoylpyridin-4-yl)nicotinamide] | 50 |
| Cc1nc(N2CCOC(C(F)F)C2)c(C(=O)Nc2ccnc(S(N)(=O)=O)c2)cc1Cl (single isomer, unassigned) [Example 125, (R or S)-5-chloro-2-(2-(difluoromethyl)morpholino)-6-methyl-N-(2-sulfamoylpyridin-4-yl)nicotinamide] | 144 |
| N#CC1CCN(c2ncc(C(F)(F)F)cc2C(=O)Nc2ccnc(S(N)(=O)=O)c2)C1 (single isomer, unassigned) [Example 129, (S or R)-2-(3-cyanopyrrolidin-1-yl)-N-(2-sulfamoylpyridin-4-yl)-5-(trifluoromethyl)nicotinamide] | 753 |
| N#CC1CCN(c2ncc(C(F)(F)F)cc2C(=O)Nc2ccnc(S(N)(=O)=O)c2)C1 (single isomer, unassigned) [Example 130, (R or S)-2-(3-cyanopyrrolidin-1-yl)-N-(2-sulfamoylpyridin-4-yl)-5-(trifluoromethyl)nicotinamide] | 3880 |
| CC1(C)CN(c2ncc(C(F)(F)F)cc2C(=O)Nc2ccnc(S(N)(=O)=O)c2)CC(C(F)(F)F)O1 (single isomer, unassigned) [Example 135, (R or S)-2-(2,2-dimethyl-6-(trifluoromethyl)morpholino)-N-(2-sulfamoylpyridin-4-yl)-5-(trifluoromethyl)nicotinamide] | 57 |
| CC1(C)CN(c2ncc(C(F)(F)F)cc2C(=O)Nc2ccnc(S(N)(=O)=O)c2)CC(C(F)(F)F)O1 (single isomer, unassigned) [Example 136, (S or R)-2-(2,2-dimethyl-6-(trifluoromethyl)-morpholino)-N-(2-sulfamoylpyridin-4-yl)-5-(trifluoromethyl)nicotinamide] | 494 |
| CC1CN(c2ncc(C(F)(F)F)cc2C(=O)Nc2ccnc(S(C)(=O)=O)c2)CCC1(F)F (single isomer, unassigned) [Example 148, 2-[(3R or 3S)-4,4-difluoro-3-methyl-1-piperidyl]-N-(2-methylsulfonyl-4-pyridyl)-5-(trifluoro-methyl)pyridine-3-carboxamide] | 26 |
| CC1CN(c2ncc(C(F)(F)F)cc2C(=O)Nc2ccnc(S(C)(=O)=O)c2)CCC1(F)F (single isomer, unassigned) [Example 149, 2-[(3S or 3R)-4,4-difluoro-3-methyl-1-piperidyl]-N-(2-methylsulfonyl-4-pyridyl)-5-(trifluoro-methyl)pyridine-3-carboxamide] | 57 |
| CC1CN(c2ncc(C(F)(F)F)cc2C(=O)Nc2ccnc(C#N)c2)CCC1(F)F (single isomer, unassigned) [Example 154, (S or R)-N-(2-cyanopyridin-4-yl)-2-(4,4-difluoro-3-methylpiperidin-1-yl)-5-(trifluoro-methyl)nicotinamide] | 84 |
| CC1CN(c2ncc(C(F)(F)F)cc2C(=O)Nc2ccnc(C#N)c2)CCC1(F)F (single isomer, unassigned) [Example 155, (R or S)-N-(2-cyanopyridin-4-yl)-2-(4,4-difluoro-3-methylpiperidin-1-yl)-5-(trifluoro-methyl)nicotinamide] | 60 |
| CC1CN(c2ncc(C(F)(F)F)cc2C(=O)Nc2ccnc(C(N)=O)c2)CCC1(F)F (single isomer, unassigned) [Example 157, N-(2-carbamoyl-4-pyridyl)-2-[(3R or 3S)-4,4-difluoro-3-methyl-1-piperidyl]-5-(trifluoromethyl)-pyridine-3-carboxamide] | 82 |
| CC1CN(c2ncc(C(F)(F)F)cc2C(=O)Nc2ccnc(C(N)=O)c2)CCC1(F)F (single isomer, unassigned) [Example 158, N-(2-carbamoyl-4-pyridyl)-2-[(3S or 3R)-4,4-difluoro-3-methyl-1-piperidyl]-5-(trifluoromethyl)-pyridine-3-carboxamide] | 41 |
| CC1CN(c2nc(C(F)(F)F)ccc2C(=O)Nc2ccnc(S(N)(=O)=O)c2)CCC1(F)F (single isomer, unassigned) [Example 162, (R or S)-2-(4,4-difluoro-3-methylpiperidin-1-yl)-N-(2-sulfamoylpyridin-4-yl)-6-(trifluoromethyl)nicotinamide] | 22 |
| CC1CN(c2nc(C(F)(F)F)ccc2C(=O)Nc2ccnc(S(N)(=O)=O)c2)CCC1(F)F (single isomer, unassigned) [Example 163, (S or R)-2-(4,4-difluoro-3-methylpiperidin-1-yl)-N-(2-sulfamoylpyridin-d-yl)-6-(trifluoromethyl)nicotinamide] | 10 |
| CC1CN(c2nc(C(F)(F)F)c(Cl)cc2C(=O)Nc2ccnc(S(N)(=O)=O)c2)CCC1(F)F (single isomer, unassigned) [Example 164, (S or R)-5-chloro-2-(4,4-difluoro-3-methylpiperidin-1-yl)-N-(2-sulfamoylpyridin-4-yl)-6-(trifluoromethyl)nicotinamide] | 3.3 |
| CC1CN(c2nc(C(F)(F)F)c(Cl)cc2C(=O)Nc2ccnc(S(N)(=O)=O)c2)CCC1(F)F (single isomer, unassigned) [Example 165, (R or S)-5-chloro-2-(4,4-difluoro-3-methylpiperidin-1-yl)-N-(2-sulfamoylpyridin-4-yl)-6-(trifluoromethyl)nicotinamide] | 2.1 |
| NS(=O)(=O)c1cncc(NC(=O)c2cc(C(F)(F)F)cnc2N2CCC(F)(F)CC2)n1 [Example 1, 2-(4,4-difluoropiperidin-1-yl)-N-(6-sulfamoylpyrazin-2-yl)-5-(trifluoromethyl)nicotinamide] | 406 |
| O=C(Nc1nccc(O)n1)c1cc(C(F)(F)F)cnc1N1CCC(F)(F)CC1 [Example 2, 2-(4,4-difluoropiperidin-1-yl)-N-(4-hydroxypyrimidin-2-yl)-5-(trifluoromethyl)nicotinamide] | 2190 |
| O=C(O)c1ccc(NC(=O)c2cc(C(F)(F)F)cnc2N2CCC(F)(F)CC2)cn1 [Example 3, 5-(2-(4,4-difluoropiperidin-1-yl)-5-(trifluoromethyl)nicotinamido)picolinic acid] | 2380 |
| O=C(O)c1cc(NC(=O)c2cc(C(F)(F)F)cnc2N2CCC(F)(F)CC2)ccn1 [Example 4, 4-(2-(4,4-difluoropiperidin-1-yl)-5-(trifluoromethyl)nicotinamido)picolinic acid] | 5430 |
| N#Cc1ccc(NC(=O)c2cc(C(F)(F)F)cnc2N2CCC(F)(F)CC2)cn1 [Example 5, N-(6-cyanopyridin-3-yl)-2-(4,4-difluoropiperidin-1-yl)-5-(trifluoromethyl)nicotinamide] | 820 |
| CS(=O)(=O)c1cncc(NC(=O)c2cc(C(F)(F)F)cnc2N2CCCCCC2)c1 [Example 6, 2-(azepan-1-yl)-N-(5-(methylsulfonyl)pyridin-3-yl)-5-(trifluoromethyl)nicotinamide] | 355 |
